Assay results: patent US20130210156A1, “Uniform, Functionalized, Cross-Linked Nanostructures for Monitoring pH” (priority 2010, published 2013)

Assays:
[1] = pH-responsive UV-Vis and fluorescence emission of MCNs, SCKs and small molecule cross-linkers; format: physicochemical; details: small molecules in buffer at the surveyed pH values (5.8 to 8.6)
Procedure: The UV-vis absorption spectra of MCNs were collected at room temperature using a Varian Cary 100 Bio UV-visible spectrophotometer and plastic cuvettes with 10 mm of light path. For each MCN absorption spectroscopy measurement, the corresponding buffer solution (5 mM with 5 mM of NaCl) outside the dialysis tubing was used as control.
The fluorescence spectra of MCNs were obtained at room temperature using a Varian Cary Eclipse fluorescence spectrophotometer. All fluorescence spectra from MCN solutions were measured at optical densities at the excitation wavelength. If not specially mentioned otherwise, an excitation wavelength of the observed maximum absorption peak was used. Each fluorescence spectrum was normalized with respect to the absorbed light intensity at the excitation wavelength.
To a solution of PEO45-b-PNAS105-b-PS45 MCMs (30.0 mg of block copolymer precursor, 127 μmol of NAS residues) in 60.0 mL of DMF/H2O (v:v=1:1) at room temperature, was added dropwise over 10 min, a solution of cross-linker 2 or 3 of FIG. 24 (12.7 μmol for nominal 20% of cross-linking and 31.8 μmol for nominal 50% of cross-linking, respectively) in nano-pure H2O. The reaction mixture was allowed to stir for 48 h at room temperature in the absence of light. […]

[2] = excited between 488 nm and 530 nm; cited from earlier work
[3] = Fluorescence emission of photonic SCKs and cross-linkers as a function of solution pH; format: physicochemical
Procedure: The resulting micelle solution 2 was incubated with 6.25 mol % or 12.5 mol % of the diamino-terminated pyrazine, relative to the acrylic acid residues, with the addition of EDCI, to afford SCK 3 or 4 having different amounts of fluorophores incorporated into the shells and, therefore, different degrees of cross-linking. The reaction mixture solutions were dialyzed against nanopure water for […] to remove the urea by-products and any non-attached pyrazine fluorophores. The SCK dimensions were then measured by atomic force microscopy (AFM) and transmission electron microscopy (TEM). […] Dialysis of the SCK solutions against nanopure water (ca. pH 7) for 3 days and then partitioning into six vials, each containing 5 mL of 5 mM PBS at pH 4.5, 6.1, 8.0, 9.5, or 11.0, placed the SCKs into different pH environments for analysis of the effects on the SCK hydrodynamic diameters and on the fluorophore photophysical properties.
Covalent cross-linking between the pyrazine units and the PAA shells, thereby, affords photonic SCKs for potential pH sensing. Covalent cross-linking between pyrazine and PAA shells constitutes photonic SCKs for potential biomedical applications. We expected to observe the photophysical consequences of the deprotonated PAA shell from pH 4.5 to 9.5 and those of the PpHS core from pH 9.5 to 11. In order to test our hypothesis, UV-vis and fluorescence measurements were collected on the resulting SCK solutions over the pH range of 4.5 to 11.0 to determine the pyrazine concentration, and then normalize the concentration relative to the fluorescence intensity values (See, FIG. 8). […] To observe the photophysical properties of the photonic SCKs, the data for the pyrazines within the SCK shell layers were compared between the two SCKs having different degrees of pyrazine loading and also against the pyrazine cross-linker associated physically with PAA and as a small molecule in buffered solutions.
To a 50 mL RB flask equipped with a magnetic stir bar was added a solution of micelles in nanopure H2O (15.0 mL, 0.016 mmol of carboxylic acid residues). To this solution, was added a solution of 3,6-diamino-N^2,N^5-bis(2-aminoethyl)pyrazine-2,5-dicarboxamide (0.397 mg, 1.12 μmol (6.25 mol % relative to the acrylic acid residues) for 12.5% cross-linking extent; or 0.794 mg, 2.24 μmol (12.5 mol % relative to the acrylic acid residues) for 25% cross-linking extent) in 1 mL nanopure H2O. The reaction mixture was allowed to stir for 2 h at room temperature. To this solution was added, dropwise via a syringe pump over 1 h, a solution of 1-[3′-(dimethylamino)propyl]-3-ethylcarbodiimide methiodide (EDCI, 0.849 mg, 2.86 μmol for 12.5% cross-linking extent; or 1.70 mg, 5.72 μmol for 25% cross-linking extent) in nanopure H2O (1.0 mL) and the reaction mixture was further stirred for 16 h at room temperature. Finally, the reaction mixture was transferred to pre-soaked dialysis tubing (MWCO ca. 3,500 Da) and dialyzed against nanopure water for 3 d to remove the small molecule starting materials and by-products, and afford aqueous solutions of SCK 3 and 4. SCK solutions for DLS, UV-vis, and fluorescence studies were further partitioned into six vials each containing 5 mM PBS (with 5 mM NaCl) at pH values of 4.5, 6.1, 8.0, 9.5, and 11.
Preparation of shell cross-linked nanoparticles (SCK) from micelles: Micelle solution pH was adjusted between 5 and 6. An electronic pipette was used to add 6.25 mol % or 12.5 mol % of diamine-terminated cross-linker (from stock solution with concentration 2.392 mg/mL or 6.2957 mg/mL) to the micelle solution and let stir for 3 hrs. To this reaction mixture was added dropwise, via a metering pump, a solution of 1-[3-(dimethylamino)propyl]-3-ethylcarbodiimide methiodide dissolved in nanopure water (12.5 mol % or 25.0 mol %). […]

Cl.Cl.NCCCOCCOCCOCCCNC(=O)c1nc(N)c(C(=O)NCCCOCCOCCOCCCN)nc1N [cross-linker 3]
UV-Vis absorbance and fluorescence emission spectra variation [1]: no apparent UV-Vis absorbance and fluorescence emission spectra variation

carboxyseminaphthofluorescein [cSNARF®-1]
I580/I640 ratio [2]: greater than thirty

Cl.Cl.NCCNC(=O)c1nc(N)c(C(=O)NCCN)nc1N [cross-linker 2]
UV-Vis absorbance and fluorescence emission spectra variation [1]: no apparent UV-Vis absorbance and fluorescence emission spectra variation

Cl.Cl.NCCNC(=O)c1nc(N)c(C(=O)NCCN)nc1N [Photonic Cross-Linker Example 2, 3,6-diamino-N^2,N^5-bis(2-aminoethyl)pyrazine-2,5-dicarboxamide dihydrochloride]
change in fluorescence ([3]; as a function of increasing pH): less than 10% | Normalized percent increase in fluorescence ([3]; solution pH 4.5): 100% | Normalized percent increase in fluorescence ([3]; solution pH 6.1): 100% | Normalized percent increase in fluorescence ([3]; solution pH 8.0): 100% | Normalized percent increase in fluorescence ([3]; solution pH 9.5): 110% | Normalized percent increase in fluorescence ([3]; solution pH 11.0): 100%

Cl.Cl.NCCCOCCOCCOCCCNC(=O)c1nc(N)c(C(=O)NCCCOCCOCCOCCCN)nc1N [Photonic Cross-Linker Example 3, 3,6-diamino-N^2,N^5-bis(3-(2-(2-(3-aminopropoxy)ethoxy)ethoxy)propyl)pyrazine-2,5-dicarboxamide dihydrochloride]
decrease in fluorescence ([3]; as a function of increasing pH): ca. 30%
